Results published in patent US8802818B2, “Prostaglandin-F2 alpha receptor modulators and uses thereof” (priority 2011, dated 2014).
Square brackets hold non-standard residues; d marks the D form. Peptide text beside a SMILES is read from it. * marks the point of attachment. 3Pal = N[C@@H](Cc1cccnc1)C(=O)O; β3hF = N[C@H](CC(=O)O)Cc1ccccc1; PhAc = O=C(Cc1ccccc1)*; azaGly = NNC(=O)O

Experiments:
SW480 cells = experiment: Migration/invasion of SW480 cells in collagen-coated Boyden chambers; format: cell-based, human; conditions: 1 μM, 30 min pre-treatment, 16 h; for PGF2α-induced migration of SW480 cells: then 1 μM PGF2α
Protocol: SW480 cells were re-seeded into collagen-coated Boyden chambers, pretreated with PDC (1 μM, 30 min.), and stimulated or not with 1 μM PGF2α and PGE2 (use to show specificity of analogs for FP). Migration/invasion was assessed after 16 h.
Migration/invasion was assessed after 16 h.

PGF2α receptor (FP) [1] = molecular target: T1, PGF2α receptor (FP) (Homo sapiens, UniProt P43088); experiment: Cell ruffling in FP expressing HEK293 cells; conditions: 30 min; for inhibition of FP-induced (PGF2α-mediated) cell ruffling: pretreated 1 μM, then PGF2α 1 μM
Source text: Nine fields (50-75 cells/field) per cover slip were quantified to assess circular cellular ruffling.

PGF2α receptor (FP) [2] = molecular target: T1, PGF2α receptor (FP); experiment: ERK1/2 MAP kinase activation in HEK293 cells stably transfected with HA-FP (western blot); format: cell-based; parameters: expressed in transfected cells; host or cells: HEK293; conditions: 1 μM azapeptide 30 min pre-treatment, then PGF2α 0.1 μM or 1 μM for 5 min
Protocol: PGF2αreceptor (FP) expressing cells were serum-starved and pre-treated with 1 μM azapeptides (6-9) for 30 min and then stimulated with 0.1 μM (A) or 1 μM (B) PGF2α for 5 min as described.^24 Blots were quantified by densitometry and plotted compared to the non-stimulated (NS) condition. Results are representative of five independent experiments;
PGF2α was obtained from Cayman. Mouse monoclonal anti-p-ERK and rabbit polyclonal anti-total ERK antibodies were from Cell Signaling. HEK293 cells stably transfected with HA-FP (HA-FP cells)^24 were employed to measure activation of MAP kinase by PGF2α using conventional western blot methods. Briefly, HA-FP cells in 6-well plates were starved for 30 min and pre-treated with 1 μM of an azapeptide (6-9) for 30 min, and then challenged with PGF2α (0.1 μM or 1 μM) for 5 min. Cells were lysed in Laemmli buffer 2× (250 mM Tris-HCl pH 6.8, 2% SDS, 10% Glycerol, 0.01% Bromophenol blue). Lysates were electrophoresed on a 10% SDS-PAGE gels, transferred to nitrocellulose membranes, and probed using mouse anti-p-ERK1/2 and rabbit anti-total-ERK1/2 antibodies. Blots were quantified by densitometry and statistical tests were performed as described.^24

[3] = test system: PGF2α-induced myometrial contractions; experiment: Ex vivo myometrial contraction assay; parameters: species or system mice; conditions: mouse myometrial strips; compound given 15 min before PGF2α
Protocol: FIGS. 7A and 7B show the effects of PDC113.824 and azapeptides 5-9 on mean tension in myometrial preparations induced by PGF2α. At the beginning of each experiment, mean tension of spontaneous myometrial contraction was considered as the basal response. […] Values as mean±SEM of 3-5 experiments for each compound; p<0.05 compared to all values without asterisks.
Ex vivo myometrial contraction assays were performed as previously described^24. Briefly, uteri from mice were obtained from animals immediately after delivery.

[4] = test system: SW480, HT29, Caco-2 and HTC116 cells; experiment: Effect of PGF2α and PGE2 on colorectal cancer cell migration (collagen-coated Boyden chamber); format: cell-based, human; conditions: for migration of colorectal adenocarcinoma cell lines on stimulation: mediator 1 μM, 16 h, SW480, HT29, Caco-2, HTC116
Protocol: SW480 (p53 mut, K-Ras mut, APC mut), HT29 (p53 mut, K-Ras WT, APC mut), Caco-2 (p53 mut, K-Ras WT, APC mut), and HTC116 ([…], K-Ras mut, APC mut) cells were re-seeded into Boyden chambers coated with collagen, stimulated or not with FBS (10%), PGF2α (1 μM) or PGE2 (1 μM). Migration/invation was assessed after 16 h. Results are presented as mean±SEM of 3 independent experiments. *p<0.05, **p<0.01, ***p<0.001 compared to non-stimulated (ns) conditions;

T1 sequence (P43088 whole entry, species assumed): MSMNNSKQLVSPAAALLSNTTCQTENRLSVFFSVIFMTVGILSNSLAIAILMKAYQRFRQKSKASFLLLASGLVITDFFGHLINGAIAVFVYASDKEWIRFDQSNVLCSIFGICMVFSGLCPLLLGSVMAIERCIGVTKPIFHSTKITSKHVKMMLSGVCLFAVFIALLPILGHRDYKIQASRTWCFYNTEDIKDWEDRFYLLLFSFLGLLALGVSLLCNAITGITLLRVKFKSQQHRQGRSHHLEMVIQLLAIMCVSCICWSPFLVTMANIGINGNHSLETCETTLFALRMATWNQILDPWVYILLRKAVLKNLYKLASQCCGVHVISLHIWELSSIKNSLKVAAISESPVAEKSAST

O=C(O)C[C@H](Cc1ccccc1)NC(=O)[C@H](Cc1cccnc1)NC(=O)[C@@H]1CCCN1C(=O)NNC(=O)Cc1ccccc1 [Compound 5] (PhAc-[azaGly]P[3Pal][β3hF]-OH)
PGF2α-induced migration of SW480 cells (SW480 cells): significantly impaired the ability of SW480 cells to migrate | inhibition of FP-induced (PGF2α-mediated) cell ruffling (PGF2α receptor (FP) [1]): as effective as PDC113.824 in inhibiting FP-induced cell ruffling

C#CCN(NC(=O)Cc1ccccc1)C(=O)N1CCC[C@H]1C(=O)N[C@@H](Cc1cccnc1)C(=O)N[C@H](CC(=O)O)Cc1ccccc1 [Compound 6, Phenylacetyl-aza-propargylglycinyl-(2S)-prolyl-(2S)-3-(pyridyl)-alaninyl-(3S)-β-homophenylalanine]
PGF2α-induced migration of SW480 cells (SW480 cells): had an effect on cell migration but was not as effective as the others | PGF2α-mediated ERK1/2 signaling relative to cells stimulated with PGF2α alone (PGF2α receptor (FP) [2]): significantly potentiated | inhibition of FP-induced (PGF2α-mediated) cell ruffling (PGF2α receptor (FP) [1]): slightly reduced PGF2α-mediated cell ruffling

O=C(O)C[C@H](Cc1ccccc1)NC(=O)[C@H](Cc1cccnc1)NC(=O)[C@@H]1CCCN1C(=O)N(Cc1ccccc1)NC(=O)Cc1ccccc1 [Compound 7]
PGF2α-induced migration of SW480 cells (SW480 cells): significantly impaired the ability of SW480 cells to migrate | reduction of PGF2α-induced myometrial contractions (mean tension) [3]: active | PGF2α-mediated ERK1/2 signaling relative to cells stimulated with PGF2α alone (PGF2α receptor (FP) [2]): significantly potentiated | inhibition of FP-induced (PGF2α-mediated) cell ruffling (PGF2α receptor (FP) [1]): as effective as PDC113.824 in inhibiting FP-induced cell ruffling

C=CCN(NC(=O)Cc1ccccc1)C(=O)N1CCC[C@H]1C(=O)N[C@@H](Cc1cccnc1)C(=O)N[C@H](CC(=O)O)Cc1ccccc1 [Compound 8]
PGF2α-induced migration of SW480 cells (SW480 cells): significantly impaired the ability of SW480 cells to migrate | PGF2α-mediated ERK1/2 signaling relative to cells stimulated with PGF2α alone (PGF2α receptor (FP) [2]): hindered | inhibition of FP-induced (PGF2α-mediated) cell ruffling (PGF2α receptor (FP) [1]): as effective as PDC113.824 in inhibiting FP-induced cell ruffling

CN(NC(=O)Cc1ccccc1)C(=O)N1CCC[C@H]1C(=O)N[C@@H](Cc1cccnc1)C(=O)N[C@H](CC(=O)O)Cc1ccccc1 [Compound 9]
PGF2α-induced migration of SW480 cells (SW480 cells): relatively lower effect | PGF2α-mediated ERK1/2 signaling relative to cells stimulated with PGF2α alone (PGF2α receptor (FP) [2]): hindered | inhibition of FP-induced (PGF2α-mediated) cell ruffling (PGF2α receptor (FP) [1]): slightly reduced PGF2α-mediated cell ruffling

O=C(O)C[C@H](Cc1ccccc1)NC(=O)[C@H](Cc1cccnc1)NC(=O)[C@@H]1CC[C@@H]2CC[C@H](NC(=O)Cc3ccccc3)C(=O)N21 [PDC113.824, Phenylacetyl-(3S,6S,9S)-I^2aa-(2S)-(3-pyridyl)alaninyl-(3S)-β-homophenylalanine, reference compound]
PGE2-induced migration of SW480 cells (SW480 cells; then 1 μM PGE2): without affecting migration induced by PGE2 | PGF2α-induced migration of SW480 cells (SW480 cells): significantly blocked PGF2α-induced migration | migration of SW480 cells in the absence of PGF2α and PGE2 (SW480 cells): did not affect the migration of SW480 cells | reduction of PGF2α-induced myometrial contractions (mean tension) [3]: active | inhibition of FP-induced (PGF2α-mediated) cell ruffling (PGF2α receptor (FP) [1]): inhibiting FP-induced cell ruffling

CCCCC[C@H](O)/C=C/[C@H]1[C@H](O)CC(=O)[C@@H]1C/C=C\CCCC(=O)O [PGE2]
migration of colorectal adenocarcinoma cell lines on stimulation [4]: enhanced migration of the four (4) cell lines examined

CCCCC[C@H](O)/C=C/[C@@H]1[C@@H](C/C=C\CCCC(=O)O)[C@@H](O)C[C@H]1O [PGF2α]
potency of PGF2α on migration compared with PGE2 ([4]; SW480 and HT29 cells): as potent as PGE2 | migration of colorectal adenocarcinoma cell lines on stimulation [4]: enhanced migration of the four (4) cell lines examined | membrane ruffle formation, share of FP cells (PGF2α receptor (FP) [1]; PGF2α 1 μM): 65.7 ± 1.6%
